In this test the target is Serine/threonine-protein kinase B-raf [V600E] (Homo sapiens, UniProt P15056, V600E). In words: BRAF V600E and V600K Enzyme Assay. An excerpt: A competitive displacement assay was configured for B-Raf that monitors the amount of a fluorescently-tagged tracer bound to B-Raf via TR-FRET from an anti-tag Eu-labeled antibody also bound to B-Raf.
Sequence of Serine/threonine-protein kinase B-raf [V600E] (P15056 2-766 V600E limits assumed): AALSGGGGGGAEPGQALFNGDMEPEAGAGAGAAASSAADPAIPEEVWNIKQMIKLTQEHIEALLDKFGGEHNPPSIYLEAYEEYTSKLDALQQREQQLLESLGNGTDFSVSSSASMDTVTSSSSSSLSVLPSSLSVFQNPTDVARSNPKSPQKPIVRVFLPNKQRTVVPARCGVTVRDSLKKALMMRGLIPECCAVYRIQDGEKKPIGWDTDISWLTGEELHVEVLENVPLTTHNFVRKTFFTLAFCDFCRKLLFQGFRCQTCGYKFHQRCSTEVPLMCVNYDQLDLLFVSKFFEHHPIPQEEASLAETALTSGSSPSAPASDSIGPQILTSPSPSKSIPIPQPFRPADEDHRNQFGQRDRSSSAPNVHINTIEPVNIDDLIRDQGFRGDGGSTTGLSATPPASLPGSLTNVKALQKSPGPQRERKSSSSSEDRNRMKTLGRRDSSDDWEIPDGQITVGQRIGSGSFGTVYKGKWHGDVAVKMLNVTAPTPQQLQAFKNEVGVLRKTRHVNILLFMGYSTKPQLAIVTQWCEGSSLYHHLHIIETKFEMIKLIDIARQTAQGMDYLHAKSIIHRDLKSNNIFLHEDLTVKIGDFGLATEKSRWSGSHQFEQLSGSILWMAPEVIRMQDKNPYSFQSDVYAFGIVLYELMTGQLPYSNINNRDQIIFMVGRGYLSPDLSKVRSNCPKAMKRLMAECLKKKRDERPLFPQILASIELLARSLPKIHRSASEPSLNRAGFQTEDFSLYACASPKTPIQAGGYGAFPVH

As for `Cc1c(Nc2c(F)ccc(NS(=O)(=O)CC3CC3)c2Cl)ccc2ncn(C)c(=O)c12` [US11414404, Ex. # 50], the IC50 (usually the concentration that inhibits the measured activity by half) is 0.0661 µM.
In turn, `Cc1c(Nc2c(F)cnc(NS(=O)(=O)CC3CC3)c2Cl)ccc2ncn(C)c(=O)c12` [US11414404, Ex. # 47] registered an IC50 of 0.0417 µM.
Then `Cc1c(Nc2c(F)ccc(NS(=O)(=O)CC(C)C)c2Cl)ccc2ncn(C)c(=O)c12` [US11414404, Ex. # 51], with 0.0634 µM.
